≈ marks a conversion by molar mass, not a printed value. Entries after “also recorded” stand apart in the source; their conditions may differ. Like-named read-outs stand apart in the source and are kept apart here.
Columns and labels:
agr = test: microbe, parasite or virus in culture; assay type: cell-based, Staphylococcus aureus; conditions: for IC50: Staphylococcus aureus, read-out: agr IC50; for difference between MIC and agr IC50: MIC relative to agr IC50; for effect of double bond in acyl chain on activity: S18 cf. 15, S19 cf. 16
Staphylococcus aureus = test: Antibacterial activity (MIC in MH broth); assay type: cell-based; conditions: for MIC: Staphylococcus aureus; for inhibition of bacterial growth (result in words): at 100 μM
S. aureus membranes = molecular target: S. aureus membranes; design: species or system Staphylococcus aureus; conditions: read-out: Kd (membrane binding)
S. aureus strain Newman = conditions: mouse, in vivo
[1] = system: adherence of S. aureus to human nasal squamous cells; assay type: cell-based, Staphylococcus aureus
AgrC-1 = assay type: cell-based, Staphylococcus aureus; conditions: for competition with AIP-1 for cognate AgrC: blaZ-based agrP3 reporter
[2] = design: method as in PMID 15623555, PMID 22178671; conditions: cited from earlier work
P. aeruginosa = system: P. aeruginosa; design: method as in PMID 21502732; conditions: cited from earlier work
C. difficile = system: C. difficile; design: method as in PMID 19917748; conditions: cited from earlier work
S. aureus USA300 = assay type: cell-based, Staphylococcus aureus; conditions: 4 at up to 100 μM

CCCCCCCCCC(=O)CC(=O)N[C@H]1CCNC1=O [Compound S5] gave an IC50 (agr) greater than 100 µM and an MIC (Staphylococcus aureus) greater than 100 µM.

In the case of O=C1N[C@@H](CCO)C(=O)/C1=C(/O)Cc1ccc([N+](=O)[O-])cc1 [Compound 11], the IC50 (agr) is reported as greater than 100 µM and the MIC (Staphylococcus aureus) is reported as greater than 100 µM.

In the case of CCCCCCCCCC(=O)CC(=O)N[C@@H](CCO)C(=O)O [Compound S1, N-(3-oxododecanoyl)-L-homoserine], the “inhibited agr (result in words)” value (agr) is reported as “neither”, the IC50 (agr) is reported as greater than 100 µM and the MIC (Staphylococcus aureus) is reported as greater than 100 µM.

Compound O=C(COc1ccc(Br)cc1)C1=C(O)COC1=O [Compound S22] has an IC50 (agr) greater than 100 µM and an MIC (Staphylococcus aureus) greater than 100 µM.

In the case of CCCCCCCCCC(=O)CC(=O)N[C@H]1CC(=O)NC1=O [Compound S7], the IC50 (agr) is reported as greater than 100 µM and the MIC (Staphylococcus aureus) is reported as greater than 100 µM.

O=C1N[C@@H](CCO)C(=O)/C1=C(/O)CCCC1CCCCC1 [Compound 10] gave an IC50 (agr) greater than 100 µM and an MIC (Staphylococcus aureus) greater than 100 µM.

Work on CCCCC/C=C/CCC(=O)CC(=O)N[C@H]1CCOC1=O [Compound S14] yielded an IC50 (agr) greater than 100 µM and an MIC (Staphylococcus aureus) greater than 100 µM.

CC(C)CCCCCCC(=O)C1=C(O)COC1=O [Compound S17] showed an IC50 (agr) greater than 100 µM and an MIC (Staphylococcus aureus) greater than 100 µM.

For CCCCCCCCCCCCC/C(O)=C1/C(=O)N[C@@H](CCO)C1=O [Compound 8], the “difference between MIC and agr IC50” value (agr) was “little different”, the Kd (S. aureus membranes) was 2 µM and the “fold lower MIC” value (Staphylococcus aureus; versus 5 (MIC 100 μM)) was 8 fold.

In the case of CCCCCCCCC/C(O)=C1/C(=O)N[C@@H](C)C1=O [Compound 12, (S)-3-Decanoyl-5-methyltetramic acid], the “inhibited agr (result in words)” value (agr) is reported as “enhanced agr inhibitory activity”.

For CCCCCCCCN(C)C(=O)CC(=O)N[C@H]1CCOC1=O [Compound S11], the IC50 (agr) was greater than 100 µM and the MIC (Staphylococcus aureus) was greater than 100 µM.

For CCCCCCCCCC/C(O)=C1/C(=O)N[C@@H](CCO)C1=O [Compound 6], the “difference between MIC and agr IC50” value (agr) was 5 fold.

CCCCCCCCCCC/C(O)=C1/C(=O)N[C@@H](CCO)C1=O [Compound 7, (S)-3-Dodecanoyl-5-(2-hydroxyethyl)tetramic Acid] showed a Kd (S. aureus membranes) of 23 µM.

In the case of O=C(CCCc1ccccc1)CC(=O)N[C@H]1CCOC1=O [Compound S15], the IC50 (agr) is reported as greater than 100 µM and the MIC (Staphylococcus aureus) is reported as greater than 100 µM.

For CCCCCCCCCC(=O)CC(=O)C1=C(O)COC1=O [Compound S24], the IC50 (agr) was greater than 100 µM and the MIC (Staphylococcus aureus) was greater than 100 µM.

In the case of CCCCCCCCC/C(O)=C1\C(=O)CNC1=O [Compound 13, 3-decanoyltetramic acid], the “inhibited agr (result in words)” value (agr) is reported as “enhanced agr inhibitory activity”.

In the case of CCCCCCCCCCCCCCCC(=O)C1=C(O)COC1=O [Compound 18], the MIC (Staphylococcus aureus) is reported as greater than 100 µM.

With CCCCCCCCC/C(O)=C1/C(=O)N[C@@H](CCO)C1=O [Compound 5, (S)-3-Decanoyl-5-(2-hydroxyethyl)tetramic Acid] the “activity in murine infection model” value (S. aureus strain Newman) was “inactive”, the Kd (S. aureus membranes) was 222 µM and the “attachment of S. aureus to human squamous cells” value [1] was “substantially reduced attachment”. For the same compound, the “competition with AIP-1 for cognate AgrC” value (AgrC-1) was “do not compete”, the “decrease of maximum level of activation by AIP-1” value (AgrC-1; increasing concentrations of 5 from 0 to 100 μM) was “over 10 fold” and the “ferric ion chelator (result in words)” value [2] was “ferric ion chelators”.

In the case of CCCCCCCCCC(=O)CC(=O)N[C@H]1CCSC1=O [Compound S4], the IC50 (agr) is reported as greater than 100 µM and the MIC (Staphylococcus aureus) is reported as greater than 100 µM.

In the case of CCCCCCCCC/C(O)=C1/C(=O)N[C@H](CCO)C1=O [Compound 9], the “fold improvement of agr inhibitory activity” value (agr; (R)-9 versus (S)-5) is reported as 1.5 fold and the MIC (Staphylococcus aureus) is reported as greater than 100 µM.

With CCCCCCCCCC(=O)CC(N)=O [Compound S2, 3-oxododecanamide] the “inhibited agr (result in words)” value (agr) was “neither”, the IC50 (agr) was greater than 100 µM and the MIC (Staphylococcus aureus) was greater than 100 µM.

Work on O=C(Cc1ccc([N+](=O)[O-])cc1)C1=C(O)COC1=O [Compound S20] yielded an IC50 (agr) greater than 100 µM and an MIC (Staphylococcus aureus) greater than 100 µM.

In the case of CCCCCC(=O)C1=C(O)COC1=O [Compound 14], the MIC (Staphylococcus aureus) is reported as greater than 100 µM.

Work on CCCC(=O)CC(=O)C1=C(O)COC1=O [Compound S23] yielded an IC50 (agr) greater than 100 µM and an MIC (Staphylococcus aureus) greater than 100 µM.

For CCC/C(O)=C1/C(=O)N[C@@H](CCO)C1=O [Compound 3], the IC50 (agr) is given as greater than 100 µM, the “killing of P. aeruginosa” value (P. aeruginosa) is given as “kill P. aeruginosa” and the “killing of C. difficile” value (C. difficile) is given as “not C. difficile”. For the same compound, the MIC (Staphylococcus aureus) was greater than 100 µM and the “inhibition of bacterial growth (result in words)” value (Staphylococcus aureus) was “did not inhibit growth”.

Work on CCCCCCCCCC(=O)C1=C(O)COC1=O [Compound 15] yielded a Kd (S. aureus membranes) of 258 µM.

With O=C(Cc1ccc(Br)cc1)C1=C(O)COC1=O [Compound S21] the IC50 (agr) was greater than 100 µM and the MIC (Staphylococcus aureus) was greater than 100 µM.

Compound CCCCCCCCCC(O)CC(=O)N[C@H]1CCOC1=O (some centres unmarked) [Compound S9] has an IC50 (agr) greater than 100 µM and an MIC (Staphylococcus aureus) greater than 100 µM.

With CCCCCCCCCC(=O)CC(=O)N[C@H]1CCC(=O)NC1=O [Compound S6] the IC50 (agr) was greater than 100 µM and the MIC (Staphylococcus aureus) was greater than 100 µM.

In the case of CCCCCCCCCC(=O)CC(=O)N[C@@H]1CCOC1=O [Compound 2], the “fold less active in agr inhibition than L-isomer 1” value (agr; D-isomer 2 versus 1) is reported as “approximately 2 fold”.

CCCCCCCCCC(=O)CC(=O)Nc1nccs1 [Compound S3] gave an IC50 (agr) greater than 100 µM and an MIC (Staphylococcus aureus) greater than 100 µM.

In the case of CCCCCCC/C(O)=C1/C(=O)N[C@@H](CCO)C1=O [Compound 4], the “staphylococcal growth” value (S. aureus USA300) is reported as “without affecting staphylococcal growth; also recorded: without inhibiting the growth”, the MIC (Staphylococcus aureus) is reported as greater than 100 µM and the “inhibition of bacterial growth (result in words)” value (Staphylococcus aureus) is reported as “did not inhibit growth”.

For CCCCC/C=C/CCC(=O)C1=C(O)COC1=O [Compound S18], the “effect of double bond in acyl chain on activity” value (agr) was “little effect on activity”.

With CCCCCCCCCCCC(=O)C1=C(O)COC1=O [Compound 16, 3-Dodecanoyltetronic Acid] the Kd (S. aureus membranes) was 72 µM, the “fold more potent in preventing AIP-mediated activation of AgrC” value (AgrC-1; 16 versus 1 and 5) was “at least 5 fold” and the “competition with AIP-1 for cognate AgrC” value (AgrC-1) was “do not compete”.

CCCCCCCCNC(=O)CC(=O)N[C@H]1CCOC1=O [Compound S10] gave an IC50 (agr) greater than 100 µM and an MIC (Staphylococcus aureus) greater than 100 µM.

In the case of CCCCCCCCOC(=O)CC(=O)N[C@H]1CCOC1=O [Compound S12], the IC50 (agr) is reported as greater than 100 µM and the MIC (Staphylococcus aureus) is reported as greater than 100 µM.

CCCCCCCCCCCC(=O)N[C@H]1CCOC1=O [Compound S8] showed an IC50 (agr) greater than 100 µM and an MIC (Staphylococcus aureus) greater than 100 µM.

For CCCCCCCCCC(=O)CC(=O)N[C@H]1CCOC1=O [Compound 1, N-(3-oxododecanoyl)-L-homoserine lactone], the Kd (S. aureus membranes) was 270 µM, the MIC (Staphylococcus aureus; S. aureus, MH broth, Table 1, read-out: MIC) was 100 µM (≈ 29.7 µg/mL) and the “competition with AIP-1 for cognate AgrC” value (AgrC-1) was “do not compete”.

For CCCCCC/C=C\CCCC(=O)C1=C(O)COC1=O [Compound S19], the “effect of double bond in acyl chain on activity” value (agr) was “almost abolished” and the MIC (Staphylococcus aureus) was greater than 100 µM.

CCCCCCCCCC(=O)CC(=O)O[C@H]1CCOC1=O [Compound S13] gave an IC50 (agr) greater than 100 µM and an MIC (Staphylococcus aureus; S. aureus, Table S1, read-out: MIC) greater than 100 µM.

Compound O=C(CCCC1CCCCC1)CC(=O)N[C@H]1CCOC1=O [Compound S16] has an IC50 (agr) greater than 100 µM and an MIC (Staphylococcus aureus) greater than 100 µM.
